Several values for one entry are separate records, joined by “and”; a condition that tells them apart may be missing. Equal values may be shown once.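 Five compound concentrations were applied to cells in 96-well plates for 48 hours; endpoints were derived by simple linear interpolation of the resulting dose-response curve. GI50 marks 50% less growth. Definition used: TGI = concentration required for complete inhibition of growth.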
Experiments:
Assay in all cases: DTP human tumour cell line panel, 48 h
[1] = system: HT29 colon
[2] = system: OVCAR-4 ovarian
[3] = system: NCI-H23 lung
[4] = system: SK-OV-3 ovarian
[5] = system: DU-145 prostate
[6] = system: A498 renal
[7] = system: 786-0 renal
[8] = system: MDA-MB-435
[9] = system: TK-10 renal
[10] = system: NCI-H460 lung

Structure (SMILES) | TGI [1] | TGI [2] | TGI [3] | TGI [4] | TGI [5] | TGI [6] | TGI [7] | TGI [8] | TGI [9] | TGI [10] | GI50 [10] | GI50 [1] | GI50 [2] | GI50 [3] | GI50 [4] | GI50 [5] | GI50 [6] | GI50 [7] | GI50 [9] | GI50 [8]
CCc1[nH]nc(C(N)=O)c1N=NN(C)C | > 100 µM | > 100 µM | > 100 µM | > 100 µM | > 100 µM | > 100 µM | > 100 µM | > 100 µM | > 100 µM |  |  |  |  |  |  |  |  |  |  | 
O=[N+]([O-])c1cc(I)cc(/C=N/NS(=O)(=O)c2ccc(Cl)cc2)c1O | 48.6 µM | 85.6 µM | 34.2 µM | 65 µM |  | 58.8 µM | 42.9 µM |  | 74.4 µM | 37.4 µM |  |  |  |  |  |  |  |  |  | 
Cc1c[nH]c(=O)n(Cc2nnc(CCC(=O)c3nc4ccccc4[nH]3)o2)c1=O | > 43.1 µM | > 100 µM |  | 13.2 µM | 1.21 µM | 3.89 µM | 38.3 µM |  | > 80.6 µM | > 43.1 µM | 0.387 µM | 0.194 µM | 0.629 µM | 0.432 µM | 0.46 µM | 0.337 µM | 0.296 µM | 1.98 µM | 3.68 µM | 
O=C(O)CCSC(=O)Nc1cccc2ccccc12 | > 100 µM | > 100 µM | > 100 µM | > 100 µM |  | > 100 µM | > 100 µM |  | > 100 µM | > 100 µM |  |  |  |  |  |  |  |  |  | 
CCc1cccc(C(C)CC)c1NC(=O)C(=O)Cc1nc2ccccc2o1 (configuration not stated) | > 50 µM | > 50 µM | > 50 µM | > 50 µM |  | > 50 µM | > 50 µM |  | > 50 µM | > 50 µM |  |  |  |  |  |  |  |  |  | 
COc1ccc2c(c1)C(=O)c1c-2c(N2CCN(C(=O)CCNCCNCCN)CC2)nc2ccccc12 | 4.88 µM | 38.3 µM |  | 30.6 µM |  | 33.7 µM | 6.62 µM | 30 µM | 42.1 µM | 5.42 µM | 2.4 µM | 2.43 µM | 20.4 µM |  | 14.6 µM |  | 16.9 µM | 2.51 µM | 18.4 µM | 6.86 µM
CCN(CC)CCCNc1n[n+]([O-])c2ccccc2[n+]1[O-] | 85.3 µM | > 100 µM | 46.9 µM |  | 66.9 µM | 16.6 µM | 33.4 µM | > 100 µM | 39 µM | 27.4 µM |  |  |  |  |  |  |  |  |  | 
CC(C)CCCCCCCCCCCCC(=O)NCC(=O)NC1C(C)OC(Nc2ncnc3nc[nH]c23)C(O)C1O (configuration not stated) |  | 0.00803 µM | 0.172 µM | 0.00397 µM and 0.0286 µM |  |  | 0.232 µM |  | 0.0096 µM and 0.0809 µM | 0.00577 µM and < 0.0111 µM |  | 0.00453 µM | 0.0148 µM | 0.00875 µM | 0.000454 µM and 0.00314 µM |  |  | 0.00182 µM |  | 
CN(C)CCN(C)C(=O)c1cccc2cccc(C(=O)O)c12 | > 100 µM | > 100 µM | > 100 µM | > 100 µM |  | > 100 µM | > 100 µM |  | > 100 µM | > 100 µM |  |  |  |  |  |  |  |  |  | 
O=C(C=Nc1ccccc1S)c1ccco1 | 37.7 µM | 26.4 µM | 15.6 µM | 10.1 µM |  | > 100 µM | 31.8 µM |  | 33.4 µM | > 100 µM | > 100 µM |  |  |  | 3.2 µM |  | > 100 µM | 16.6 µM |  | 
O=C1c2cc3c(cc2-c2c1c1ccc(F)cc1c(=O)n2C[C@H](O)[C@H](O)[C@H](O)CO)OCO3 | 0.397 µM | 34.9 µM | 0.482 µM | 0.694 µM | 1.59 µM | 0.327 µM | 21.6 µM | 0.409 µM | 0.873 µM |  |  | 0.142 µM | 0.28 µM | 0.129 µM | 0.186 µM | 0.199 µM | 0.142 µM | 0.209 µM | 0.248 µM | 0.174 µM
CCN(CC)CCn1c(=O)c2cc(OC)c(OC)cc2c2ccc3cc4c(cc3c21)OCO4 | 6.16 µM | 19.9 µM | 11.6 µM |  | 6.93 µM | 0.655 µM | 13.4 µM | 20.9 µM | 30.3 µM | 1.41 µM | 0.0766 µM | 0.195 µM | 0.477 µM | 0.348 µM |  | 0.321 µM | 0.15 µM | 0.479 µM | 13.4 µM | 0.795 µM
COc1ccc([Se][Se]c2ccc(OC)cc2OC)c(OC)c1 | > 100 µM | 4.6 µM | 15.3 µM | 76.5 µM |  | 53.5 µM | 7.78 µM |  | 16.3 µM | > 100 µM |  |  |  |  |  |  |  |  |  | 
Cc1[nH]c2ccccc2c1C1=NO/C(=N\O)C(c2c(C)[nH]c3ccccc23)C1 (configuration not stated) | 58.9 µM | > 100 µM | > 100 µM | > 100 µM |  | > 100 µM | > 100 µM |  | > 100 µM | > 67.6 µM |  |  |  |  |  |  |  |  |  | 
N#CC1(N2CCCC2)CCC2(CC1)OCCO2 | > 100 µM | > 100 µM | > 100 µM | > 100 µM |  | > 100 µM | > 100 µM |  | > 100 µM | > 100 µM |  |  |  |  |  |  |  |  |  | 
C=CCOc1ccc(N)c([N+](=O)[O-])c1 | > 100 µM |  | > 100 µM | > 100 µM | > 100 µM | > 100 µM | > 100 µM | > 100 µM | > 100 µM |  |  |  |  |  |  |  |  |  |  | 
COc1ccc(-c2cc(=O)c3cc(C)c(C)c(C(=O)O)c3o2)cc1 | > 100 µM | > 100 µM | > 100 µM | > 100 µM |  | > 100 µM | > 100 µM |  |  | > 100 µM |  |  |  |  |  |  |  |  |  | 
C[C@]12CCc3nonc3C1CC[C@@H]1C2CC[C@@]2(C)C1CC[C@@H]2O (some centres not stated) | > 100 µM | > 100 µM | > 100 µM | > 100 µM |  | > 100 µM | > 100 µM |  | > 100 µM | > 100 µM |  |  |  |  |  |  |  |  |  | 
CCCCC(OC(=O)c1ccc(N)cc1)C(=O)Nc1nc(CC(=O)OCC)cs1 (configuration not stated) | > 100 µM | > 100 µM |  | > 100 µM | > 100 µM | > 100 µM | > 100 µM | > 100 µM | > 100 µM |  |  | 36.7 µM | 29.8 µM |  | 29.1 µM | 36 µM | 57.4 µM | 53.6 µM | 40 µM | 35 µM
CCOC(=O)CNC(=O)OCc1ccccc1 | > 100 µM |  | > 100 µM | > 100 µM |  | > 100 µM | > 100 µM |  | > 100 µM | > 100 µM |  |  |  |  |  |  |  |  |  | 

Reference: PubChem BioAssay (NCI)
